# Calls of active or inactive are those of the source. The rule behind the calls is not given here.
# Tested on: rodent carcinogenicity bioassays, tumor incidence
# Experiment: CCRIS carcinogenicity studies
# Method in brief: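 Archive of carcinogenicity, mutagenicity, tumor promotion and tumor inhibition results drawn from journals, NCI reports and other sources, expert-reviewed; covers 1985-2011 and is no longer updated.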
structure (smiles),measurement,setting,value
O=C1OC2(c3ccccc31)c1cc(I)c(O)c(I)c1Oc1c2cc(I)c(O)c1I,carcinogen call,"Species: MOUSE, Strain/Sex: CD-1/FEMALE, Route: ORAL, Dose: 0, 0.3, 1.0, 3.0% IN DIET FOR 24 MO (STUDY DURATION: 24 MO), Dose: 0, 0.3, 1.0, 3.0% IN DIET FOR 24 MO (STUDY DURATION: 24 MO)",inactive; negative
same,carcinogen call,"Species: MOUSE, Strain/Sex: CD-1/MALE, Route: ORAL, Dose: 0, 0.3, 1.0, 3.0% IN DIET FOR 24 MO (STUDY DURATION: 24 MO), Dose: 0, 0.3, 1.0, 3.0% IN DIET FOR 24 MO (STUDY DURATION: 24 MO)",inactive; negative
same,carcinogen call,"Species: MOUSE, Strain/Sex: ICR/FEMALE, Route: DERMAL, Dose: 0, 1 MG IN 0.1 ML DISTILLED WATER 2/WK FOR A MEAN TOTAL DOSE OF 133 MG (STUDY DURATION: 18 MO)",inactive; negative
same,carcinogen call,"Species: MOUSE, Strain/Sex: ICR/MALE, Route: DERMAL, Dose: 0, 1 MG IN 0.1 ML DISTILLED WATER 2/WK FOR A MEAN TOTAL DOSE OF 133 MG (STUDY DURATION: 18 MO)",inactive; negative
same,carcinogen call,"Species: RAT, Strain/Sex: CD-1/FEMALE, Route: ORAL, Dose: 0, 0.1, 0.5, 1% IN DIET FOR 30 MO BEGINNING IN UTERO WITH PARENTS GIVEN THE SAME DIETARY DOSES (STUDY DURATION: 30 MO), Dose: 0, 0.1, 0.5, 1% IN DIET FOR 30 MO BEGINNING IN UTERO WITH PARENTS GIVEN THE SAME DIETARY DOSES (STUDY DURATION: 30 MO)",inactive; negative
same,carcinogen call,"Species: RAT, Strain/Sex: CD-1/FEMALE, Route: ORAL, Dose: 0, 4% IN DIET FOR 30 MO BEGINNING IN UTERO WITH PARENTS GIVEN THE SAME DIETARY DOSES (STUDY DURATION: 30 MO)",inactive; negative
same,carcinogen call,"Species: RAT, Strain/Sex: CD-1/MALE, Route: ORAL, Dose: 0, 0.1, 0.5, 1% IN DIET FOR 30 MO BEGINNING IN UTERO WITH PARENTS GIVEN THE SAME DIETARY DOSES (STUDY DURATION: 30 MO), Dose: 0, 0.1, 0.5, 1% IN DIET FOR 30 MO BEGINNING IN UTERO WITH PARENTS GIVEN THE SAME DIETARY DOSES (STUDY DURATION: 30 MO)",inactive; negative
same,carcinogen call,"Species: RAT, Strain/Sex: CD-1/MALE, Route: ORAL, Dose: 0, 4% IN DIET FOR 30 MO BEGINNING IN UTERO WITH PARENTS GIVEN THE SAME DIETARY DOSES (STUDY DURATION: 30 MO), Tumor Site: Type of Lesion: THYROID: ADENOMA",active; positive
CC1CN(N=O)CO1 (centres undefined),carcinogen call,"Species: HAMSTER, Strain/Sex: SYRIAN/MALE, Route: INTRAGASTRIC, Dose: 0, 25 MG/ML IN 0.2 ML STERILIZED WATER 1/WK FOR 24 WK (TOTAL DOSE 120 MG) (STUDY DURATION: LIFESPAN), Tumor Site: Type of Lesion: LIVER: HEPATOCELLULAR CARCINOMA, ADENOMA, HEMANGIOSARCOMA, CHOLANGIOCARCINOMA, PANCREAS: DUCTAL CARCINOMA",active; positive
same,carcinogen call,"Species: RAT, Strain/Sex: F344/FEMALE, Route: ORAL, Dose: 40 MG/L IN DRINKING WATER FOR 50 WK, Tumor Site: Type of Lesion: LIVER: HEPATOCELLULAR CARCINOMA, HEMANGIOENDOTHELIAL SARCOMA",active; positive
COC(=O)COc1ccc(Cl)cc1,carcinogen call,"Species: NEWT, Route: IMMERSION, Dose: 0, 100, 200, 400 PPM 4 D/WK FOR 12 MO (STUDY DURATION: 24 MO), Dose: 0, 100, 200, 400 PPM 4 D/WK FOR 12 MO (STUDY DURATION: 24 MO)",inactive; negative
CCCCCN(CCCCC)N=O,carcinogen call,"Species: RAT, Strain/Sex: WISTAR/FEMALE, Route: SUBCUTANEOUS, Dose: 0, 62.5, 125, 250 MG/KG BW 1/WK FOR 25 WK (STUDY DURATION: 1 YR), Dose: 0, 62.5, 125, 250 MG/KG BW 1/WK FOR 25 WK (STUDY DURATION: 1 YR), Tumor Site: Type of Lesion: NASAL CAVITY: POLYPOID ADENOMA, LUNG: BRONCHIOALVEOLAR ADENOMA",active; positive
same,carcinogen call,"Species: RAT, Strain/Sex: WISTAR/MALE, Route: SUBCUTANEOUS, Dose: 0, 62.5, 125, 250 MG/KG BW 1/WK FOR 25 WK (STUDY DURATION: 1 YR), Dose: 0, 62.5, 125, 250 MG/KG BW 1/WK FOR 25 WK (STUDY DURATION: 1 YR), Tumor Site: Type of Lesion: NASAL CAVITY: POLYPOID ADENOMA, LUNG: BRONCHIOALVEOLAR ADENOCARCINOMA, BRONCHIOALVEOLAR ADENOMA",active; positive
COc1ccc(C(=O)/C(Br)=C\C(=O)O)cc1,carcinogen call,"Species: MOUSE, Strain/Sex: B6C3F1/FEMALE, Route: INTRAPERITONEAL, Dose: 0, 12, 24 MG/KG 3/WK FOR 104 WK (STUDY DURATION: 104-105 WK), Dose: 0, 12, 24 MG/KG 3/WK FOR 104 WK (STUDY DURATION: 104-105 WK)",inactive; negative
same,carcinogen call,"Species: MOUSE, Strain/Sex: B6C3F1/MALE, Route: INTRAPERITONEAL, Dose: 0, 12, 24 MG/KG 3/WK FOR 104 WK (STUDY DURATION: 104-105 WK), Dose: 0, 12, 24 MG/KG 3/WK FOR 104 WK (STUDY DURATION: 104-105 WK)",inactive; negative
same,carcinogen call,"Species: RAT, Strain/Sex: F344/FEMALE, Route: INTRAPERITONEAL, Dose: 0, 7, 14 MG/KG 3/WK FOR 104 WK (STUDY DURATION: 104-105 WK), Dose: 0, 7, 14 MG/KG 3/WK FOR 104 WK (STUDY DURATION: 104-105 WK), Tumor Site: Type of Lesion: MAMMARY GLAND: FIBROADENOMA",active; positive
same,carcinogen call,"Species: RAT, Strain/Sex: F344/MALE, Route: INTRAPERITONEAL, Dose: 0, 7, 14 MG/KG 3/WK FOR 104 WK (STUDY DURATION: 104-105 WK), Dose: 0, 7, 14 MG/KG 3/WK FOR 104 WK (STUDY DURATION: 104-105 WK), Tumor Site: Type of Lesion: MULTIPLE SITES: MALIGNANT MESOTHELIOMA, TUNICA VAGINALIS: MESOTHELIOMA",active; positive
C#C[C@]1(O)CC[C@H]2[C@@H]3CCc4cc(OC)ccc4[C@H]3CC[C@@]21C,carcinogen call,"Species: MOUSE, Route: ORAL, Tumor Site: Type of Lesion: MAMMARY GLAND, PITUITARY GLAND",active; positive
same,carcinogen call,"Species: RAT, Route: ORAL, Tumor Site: Type of Lesion: MAMMARY GLAND",active; positive

# Source: PubChem BioAssay AID1259411 (Chemical Carcinogenesis Research Information System (CCRIS), 2018)
